Legend:
[1] = test system: A549-ACE2 infected with SARS-CoV-2; assay: morphology score (similarity to uninfected cells); higher = more like uninfected cells; details: 24 h
Vero E6 [2] = assay: cell viability relative to DMSO; higher = less toxic; details: 72 h
U2OS [3] = assay: as above; details: 72 h
Calu-3 [4] = assay: as above; details: 72 h
HepG2 [5] = assay: as above; details: 72 h
Caco-2 [6] = assay: as above; details: 72 h
Vero E6 [7] = assay: relative viability EC50 (midpoint between 100% and the lowest measured viability); higher = less toxic; details: 72 h
U2OS [8] = assay: as above; details: 72 h
Calu-3 [9] = assay: as above; details: 72 h
HepG2 [10] = assay: as above; details: 72 h
Caco-2 [11] = assay: as above; details: 72 h
Vero E6 [12] = assay: drug sensitivity score (DSS) for viability; higher = more toxic; extreme values may be limits of the assay; details: 72 h
U2OS [13] = assay: as above; details: 72 h
Calu-3 [14] = assay: as above; details: 72 h
HepG2 [15] = assay: as above; details: 72 h
Caco-2 [16] = assay: as above; details: 72 h
A549-ACE2 [17] = assay: drug-induced phospholipidosis relative to tamoxifen; higher = more phospholipidosis
A549-ACE2 [18] = assay: phospholipidosis EC50; higher = less potent phospholipidosis inducer
[19] = test system: A549-ACE2 infected with SARS-CoV-2; assay: SARS-CoV-2 infection rate relative to DMSO; higher = more infection; details: 24 h
[20] = test system: A549-ACE2 infected with SARS-CoV-2; assay: cell count relative to DMSO; higher = less toxic; details: 24 h

CN1[C@@H]2CC[C@H]1C[C@@H](OC(c1ccccc1)c1ccccc1)C2 [benztropine-mesylate]
Details	SARS-CoV-2 infection rate [%]	cell count [%]	cell viability [%]	morphology score	phospholipidosis EC50 [µM]
A549-ACE2 [18], 24 h	–	–	–	–	8.44
A549-ACE2 [18], 48 h	–	–	–	–	9.6
A549-ACE2 [18], 72 h	–	–	–	–	9.86
Caco-2 [6], 1 nM	–	–	96.2	–	–
Caco-2 [6], 10 nM	–	–	98	–	–
Caco-2 [6], 100 nM	–	–	94.5	–	–
Caco-2 [6], 1000 nM	–	–	103	–	–
Caco-2 [6], 10000 nM	–	–	93	–	–
Calu-3 [4], 1 nM	–	–	101	–	–
Calu-3 [4], 10 nM	–	–	101	–	–
Calu-3 [4], 100 nM	–	–	109	–	–
Calu-3 [4], 1000 nM	–	–	116	–	–
Calu-3 [4], 10000 nM	–	–	94.2	–	–
HepG2 [5], 1 nM	–	–	103	–	–
HepG2 [5], 10 nM	–	–	102	–	–
HepG2 [5], 100 nM	–	–	103	–	–
HepG2 [5], 1000 nM	–	–	89	–	–
HepG2 [5], 10000 nM	–	–	92.1	–	–
U2OS [3], 1 nM	–	–	95.2	–	–
U2OS [3], 10 nM	–	–	98	–	–
U2OS [3], 100 nM	–	–	95.5	–	–
U2OS [3], 1000 nM	–	–	98.3	–	–
U2OS [3], 10000 nM	–	–	92.4	–	–
Vero E6 [2], 1 nM	–	–	99.4	–	–
Vero E6 [2], 10 nM	–	–	104	–	–
Vero E6 [2], 100 nM	–	–	103	–	–
Vero E6 [2], 1000 nM	–	–	97.5	–	–
Vero E6 [2], 10000 nM	–	–	93.8	–	–
[1], 0.3 µM	–	–	–	-0.15	–
[1], 3 µM	–	–	–	0.67	–
[1], 10 µM	–	–	–	0.82	–
[1], 30 µM	–	–	–	0.71	–
[19], 0.3 µM	106	–	–	–	–
[19], 3 µM	60	–	–	–	–
[19], 10 µM	33	–	–	–	–
[19], 30 µM	12	–	–	–	–
[20], 0.3 µM	–	98	–	–	–
[20], 3 µM	–	112	–	–	–
[20], 10 µM	–	123	–	–	–
[20], 30 µM	–	120	–	–	–

Details	drug sensitivity score	relative viability EC50 [µM]
Caco-2 [11]	–	> 10
Caco-2 [16]	0	–
Calu-3 [9]	–	> 10
Calu-3 [14]	0	–
HepG2 [10]	–	> 10
HepG2 [15]	0.2	–
U2OS [8]	–	> 10
U2OS [13]	0	–
Vero E6 [7]	–	> 10
Vero E6 [12]	0	–

drug-induced phospholipidosis [%], A549-ACE2 [17]
Details	0.3 µM	0.833333 µM	3.33333 µM	6.66667 µM	10 µM	30 µM
24 h	2.39	-1.85	12.3	31.1	63.2	94.2
48 h	3.49	2.96	8.82	25.8	58.8	103
72 h	4.91	3.92	10.9	27.1	59.7	107

O=C(OCC(O)CO)c1ccccc1Nc1ccnc2cc(Cl)ccc12 (stereo not given) [glafenine]
Details	SARS-CoV-2 infection rate, [19] [%]	cell count, [20] [%]	cell viability, Caco-2 [6] [%]	cell viability, Calu-3 [4] [%]	cell viability, HepG2 [5] [%]	cell viability, U2OS [3] [%]	cell viability, Vero E6 [2] [%]	morphology score, [1]
1 nM	–	–	84.7	89.4	99.8	97.2	101	–
10 nM	–	–	95.9	100	81.1	102	90.5	–
100 nM	–	–	66.6	87.7	97.4	94.8	102	–
0.3 µM	94	103	–	–	–	–	–	0.2
1000 nM	–	–	89.5	106	91	98.2	86.9	–
3 µM	88	85	–	–	–	–	–	0.28
10 µM	97	115	–	–	–	–	–	0.42
10000 nM	–	–	95.7	94	94.3	89	107	–
30 µM	53	104	–	–	–	–	–	0.74

Details	drug sensitivity score	relative viability EC50 [µM]
Caco-2 [11]	–	> 10
Caco-2 [16]	0	–
Calu-3 [9]	–	> 10
Calu-3 [14]	0	–
HepG2 [10]	–	> 10
HepG2 [15]	0	–
U2OS [8]	–	> 10
U2OS [13]	0	–
Vero E6 [7]	–	> 10
Vero E6 [12]	0	–

drug-induced phospholipidosis [%], A549-ACE2 [17]
Details	0.3 µM	0.833333 µM	3.33333 µM	6.66667 µM	10 µM	30 µM
24 h	0.74	1.36	2	1.93	2.17	23.8
48 h	0.09	-3.04	0.5	3.25	3.8	23.1
72 h	-1.15	-3.87	-2.67	0.336	3.93	30.1

O=C1Cc2c([nH]c3ccc(Br)cc23)-c2ccccc2N1 [kenpaullone]
Details	SARS-CoV-2 infection rate, [19] [%]	cell count, [20] [%]	cell viability, Caco-2 [6] [%]	cell viability, Calu-3 [4] [%]	cell viability, HepG2 [5] [%]	cell viability, U2OS [3] [%]	cell viability, Vero E6 [2] [%]	morphology score, [1]
1 nM	–	–	99.6	92.1	110	98.4	93.4	–
10 nM	–	–	93.2	95.1	96.2	98.9	93.6	–
100 nM	–	–	100	98.9	100	98.8	90.1	–
0.3 µM	106	103	–	–	–	–	–	0.06
1000 nM	–	–	102	113	108	104	101	–
3 µM	96	100	–	–	–	–	–	0.37
10 µM	94	85	–	–	–	–	–	0.47
10000 nM	–	–	96	101	100	82.3	115	–
30 µM	88	67	–	–	–	–	–	0.48

Details	drug sensitivity score	relative viability EC50 [µM]
Caco-2 [11]	–	> 10
Caco-2 [16]	0	–
Calu-3 [9]	–	> 10
Calu-3 [14]	0	–
HepG2 [10]	–	> 10
HepG2 [15]	0	–
U2OS [8]	–	> 10
U2OS [13]	0.3	–
Vero E6 [7]	–	> 10
Vero E6 [12]	0	–

drug-induced phospholipidosis [%], A549-ACE2 [17]
Details	0.3 µM	0.833333 µM	3.33333 µM	6.66667 µM	10 µM	30 µM
24 h	-0.53	-1.07	-1.23	1.24	-0.93	4.23
48 h	1.47	-0.14	1.75	3.52	2.75	2.49
72 h	2.92	0.874	5.13	6.52	5.66	9.54

NC(=O)N1CCC(CC(=O)N2CCC([C@H]3c4ncc(Br)cc4CCc4cc(Cl)cc(Br)c43)CC2)CC1 [lonafarnib]
Details	SARS-CoV-2 infection rate [%]	cell count [%]	cell viability [%]	morphology score	phospholipidosis EC50 [µM]
A549-ACE2 [18], 24 h	–	–	–	–	7.17
Caco-2 [6], 1 nM	–	–	91.3	–	–
Caco-2 [6], 10 nM	–	–	106	–	–
Caco-2 [6], 100 nM	–	–	94.6	–	–
Caco-2 [6], 1000 nM	–	–	79.7	–	–
Caco-2 [6], 10000 nM	–	–	47.7	–	–
Calu-3 [4], 1 nM	–	–	80.5	–	–
Calu-3 [4], 10 nM	–	–	91.2	–	–
Calu-3 [4], 100 nM	–	–	91.3	–	–
Calu-3 [4], 1000 nM	–	–	72.6	–	–
Calu-3 [4], 10000 nM	–	–	68.5	–	–
HepG2 [5], 1 nM	–	–	102	–	–
HepG2 [5], 10 nM	–	–	98.7	–	–
HepG2 [5], 100 nM	–	–	96.2	–	–
HepG2 [5], 1000 nM	–	–	89.5	–	–
HepG2 [5], 10000 nM	–	–	49.8	–	–
U2OS [3], 1 nM	–	–	97.5	–	–
U2OS [3], 10 nM	–	–	100	–	–
U2OS [3], 100 nM	–	–	95	–	–
U2OS [3], 1000 nM	–	–	92	–	–
U2OS [3], 10000 nM	–	–	67.2	–	–
Vero E6 [2], 1 nM	–	–	103	–	–
Vero E6 [2], 10 nM	–	–	94.1	–	–
Vero E6 [2], 100 nM	–	–	94.8	–	–
Vero E6 [2], 1000 nM	–	–	93.3	–	–
Vero E6 [2], 10000 nM	–	–	88.3	–	–
[1], 0.3 µM	–	–	–	0.19	–
[1], 3 µM	–	–	–	0.41	–
[1], 10 µM	–	–	–	0.69	–
[1], 30 µM	–	–	–	0.56	–
[19], 0.3 µM	97	–	–	–	–
[19], 3 µM	85	–	–	–	–
[19], 10 µM	71	–	–	–	–
[19], 30 µM	11	–	–	–	–
[20], 0.3 µM	–	98	–	–	–
[20], 3 µM	–	102	–	–	–
[20], 10 µM	–	94	–	–	–
[20], 30 µM	–	74	–	–	–

Details	drug sensitivity score	relative viability EC50 [µM]
Caco-2 [11]	–	1.29
Caco-2 [16]	5	–
Calu-3 [14]	6.3	–
HepG2 [10]	–	1.7
HepG2 [15]	4.4	–
U2OS [13]	2.6	–
Vero E6 [7]	–	> 10
Vero E6 [12]	0	–

drug-induced phospholipidosis [%], A549-ACE2 [17]
Details	0.3 µM	0.833333 µM	3.33333 µM	6.66667 µM	10 µM	30 µM
24 h	11.7	7.58	19.6	27.3	40.9	50.3
48 h	16.3	10.1	20.5	30.3	36.1	–
72 h	15.9	12.2	29.3	42.5	51.2	–
